Measured values reported in ChEMBL document CHEMBL4673355, “Thiacalixarene based quaternary ammonium salts as promising antibacterial agents” (Bioorg Med Chem, 2021).
Values joined by “and” are separate entries in the source; they are usually repeats but may differ in a detail not shown here. Equal entries are not always repeated.

What was measured:
[1] = Selectivity index, ratio of CC50 for human HSF cells to MIC for Bacillus subtilis 168; assay type: toxicity
[2] = Selectivity index, ratio of CC50 for human HSF cells to MIC for Staphylococcus epidermidis; assay type: toxicity; conditions: for selectivity ratio: HSF cells
[3] = Selectivity index, ratio of CC50 for human HSF cells to MIC for Staphylococcus aureus ATCC 29213; assay type: toxicity
[4] = tested on: Bacillus subtilis; assay: Bactericidal activity against Bacillus subtilis 168 assessed as reduction in bacterial growth incubated for 24 hrs followed by replating on MH broth and further incubated for 24 hrs by CLSI broth microdilution method; assay type: functional; conditions: Bacillus subtilis, 168, 24 h
[5] = tested on: Staphylococcus epidermidis; assay: Bactericidal activity against Staphylococcus epidermidis assessed as reduction in bacterial growth incubated for 24 hrs followed by replating on MH broth and further incubated for 24 hrs by CLSI broth microdilution method; assay type: functional
[6] = tested on: Staphylococcus aureus; assay: Bactericidal activity against Staphylococcus aureus ATCC 29213 assessed as reduction in bacterial growth incubated for 24 hrs followed by replating on MH broth and further incubated for 24 hrs by CLSI broth microdilution method; assay type: functional; conditions: time 48 hrs
[7] = tested on: Escherichia coli; assay: Antibacterial activity against Escherichia coli ATCC 25922 assessed as reduction in bacterial growth incubated for 24 hrs by CLSI broth microdilution method; assay type: functional
[8] = tested on: Pseudomonas aeruginosa; assay: Antibacterial activity against Pseudomonas aeruginosa ATCC 27853 assessed as reduction in bacterial growth incubated for 24 hrs by CLSI broth microdilution method; assay type: functional; conditions: Pseudomonas aeruginosa, ATCC 27853, 24 h, read-out: MIC
[9] = tested on: Staphylococcus aureus; assay: Antibacterial activity against Staphylococcus aureus ATCC 29213 by CLSI broth microdilution method; assay type: functional
[10] = tested on: Staphylococcus aureus; assay: Bactericidal activity against Staphylococcus aureus ATCC 29213; assay type: functional
[11] = tested on: Escherichia coli; assay: Bactericidal activity against Escherichia coli ATCC 25922; assay type: functional
[12] = tested on: Staphylococcus aureus; assay: Antibacterial activity against Staphylococcus aureus ATCC 6538 incubated for 24 hrs by CLSI broth microdilution method; assay type: functional
[13] = tested on: Klebsiella pneumoniae; assay: Antibacterial activity against Klebsiella pneumoniae ATCC 10031 assessed as reduction in bacterial growth incubated for 24 hrs by CLSI broth microdilution method; assay type: functional
[14] = tested on: Pseudomonas aeruginosa; assay: Antibacterial activity against Pseudomonas aeruginosa ATCC 9027 assessed as reduction in bacterial growth incubated for 24 hrs by CLSI broth microdilution method; assay type: functional
[15] = tested on: Proteus sp.; assay: Antibacterial activity against […] resistant Proteus sp. clinical isolate 17 assessed as reduction in bacterial growth incubated for 24 hrs by CLSI broth microdilution method; assay type: functional; conditions: Proteus sp. (in: enterobacteria)
[16] = tested on: Klebsiella sp.; assay: Antibacterial activity against […] resistant Klebsiella sp. clinical isolate 12 assessed as reduction in bacterial growth incubated for 24 hrs by CLSI broth microdilution method; assay type: functional
[17] = tested on: Klebsiella sp.; assay: Antibacterial activity against […] resistant Klebsiella sp. clinical isolate 11 assessed as reduction in bacterial growth incubated for 24 hrs by CLSI broth microdilution method; assay type: functional
[18] = tested on: Pseudomonas; assay: Antibacterial activity against methicillin- resistant Pseudomonas spp. clinical isolate 6 assessed as reduction in bacterial growth incubated for 24 hrs by CLSI broth microdilution method; assay type: functional
[19] = tested on: Acinetobacter; assay: Antibacterial activity against […] resistant Acinetobacter spp. clinical isolate 5 assessed as reduction in bacterial growth incubated for 24 hrs by CLSI broth microdilution method; assay type: functional
[20] = tested on: Acinetobacter; assay: Antibacterial activity against […] resistant Acinetobacter spp. clinical isolate 3 assessed as reduction in bacterial growth incubated for 24 hrs by CLSI broth microdilution method; assay type: functional
[21] = tested on: Acinetobacter; assay: Antibacterial activity against […] resistant Acinetobacter spp. clinical isolate 1 assessed as reduction in bacterial growth incubated for 24 hrs by CLSI broth microdilution method; assay type: functional
[22] = Antibacterial activity against […] resistant Moraxella sp.829 clinical isolate assessed as reduction in bacterial growth incubated for 24 hrs by CLSI broth microdilution method; assay type: functional; conditions: Moraxella catarrhalis
[23] = Antibacterial activity against […] resistant Moraxella sp.765 clinical isolate assessed as reduction in bacterial growth incubated for 24 hrs by CLSI broth microdilution method; assay type: functional; conditions: Moraxella catarrhalis
[24] = Antibacterial activity against […] resistant Moraxella sp.764 clinical isolate assessed as reduction in bacterial growth incubated for 24 hrs by CLSI broth microdilution method; assay type: functional; conditions: Moraxella catarrhalis
[25] = tested on: Staphylococcus aureus; assay: Antibacterial activity against methicillin- resistant Staphylococcus aureus 25 clinical isolate assessed as reduction in bacterial growth incubated for 24 hrs by CLSI broth microdilution method; assay type: functional
[26] = tested on: Staphylococcus aureus; assay: Antibacterial activity against methicillin- resistant Staphylococcus aureus 2020 clinical isolate assessed as reduction in bacterial growth incubated for 24 hrs by CLSI broth microdilution method; assay type: functional
[27] = tested on: Staphylococcus intermedius; assay: Antibacterial activity against methicillin- resistant Staphylococcus intermedius 1143 clinical isolate assessed as reduction in bacterial growth incubated for 24 hrs by CLSI broth microdilution method; assay type: functional
[28] = tested on: Staphylococcus aureus; assay: Antibacterial activity against methicillin- resistant Staphylococcus aureus 983 clinical isolate assessed as reduction in bacterial growth incubated for 24 hrs by CLSI broth microdilution method; assay type: functional
[29] = tested on: Staphylococcus aureus; assay: Antibacterial activity against methicillin- resistant Staphylococcus aureus 967 clinical isolate assessed as reduction in bacterial growth incubated for 24 hrs by CLSI broth microdilution method; assay type: functional
[30] = tested on: Staphylococcus haemolyticus; assay: Antibacterial activity against methicillin- resistant Staphylococcus haemolyticus 837 assessed as reduction in bacterial growth incubated for 24 hrs by CLSI broth microdilution method; assay type: functional
[31] = tested on: Klebsiella pneumoniae; assay: Bactericidal activity against Klebsiella pneumoniae ATCC 1813 assessed as reduction in bacterial growth incubated for 24 hrs followed by replating on MH broth and further incubated for 24 hrs by CLSI broth microdilution method; assay type: functional
[32] = tested on: Escherichia coli; assay: Bactericidal activity against Escherichia coli ATCC 25922 assessed as reduction in bacterial growth incubated for 24 hrs followed by replating on MH broth and further incubated for 24 hrs by CLSI broth microdilution method; assay type: functional
[33] = tested on: Staphylococcus aureus; assay: Antibacterial activity against Staphylococcus aureus ATCC 29213 assessed as reduction in bacterial growth incubated for 24 hrs by CLSI broth microdilution method; assay type: functional
[34] = tested on: Staphylococcus epidermidis; assay: Antibacterial activity against Staphylococcus epidermidis assessed as reduction in bacterial growth incubated for 24 hrs by CLSI broth microdilution method; assay type: functional
[35] = tested on: Klebsiella pneumoniae; assay: Antibacterial activity against Klebsiella pneumoniae ATCC 1813 assessed as reduction in bacterial growth incubated for 24 hrs by CLSI broth microdilution method; assay type: functional
[36] = Staphylococcus epidermidis, read-out: MBC
[37] = Staphylococcus aureus, ATCC 29213, read-out: MBC
[38] = Escherichia coli, ATCC 25922, 24 h, read-out: MIC

With `CCCC[N+](C)(C)CCCNC(=O)COc1c2cc(C(C)(C)C)cc1Sc1cc(C(C)(C)C)cc(c1OCC(=O)NCCC[N+](C)(C)CCCC)Sc1cc(C(C)(C)C)cc(c1OCC(=O)NCCC[N+](C)(C)CCCC)Sc1cc(C(C)(C)C)cc(c1OCC(=O)NCCC[N+](C)(C)CCCC)S2.[Cl-].[Cl-].[Cl-].[Cl-]` the Ratio [1] was 23 and 9, the Ratio [2] was 19 and the selectivity ratio [2] was 11. The Ratio [3] was 19, the selectivity ratio ([3]; HSF cells) was 11 and the MBC [4] was 16 µg/mL. The MBC [5, 36] was 8 µg/mL, the MBC [6, 37] was 16 µg/mL and the MIC ([7]; 24 h) was 64 µg/mL. The MIC [7, 38] was over 64 µg/mL and the MIC [8] was over 64 µg/mL.
With `CC(C)(C)c1cc2c(OCC(=O)NCCC[N+](C)(C)C)c(c1)Sc1cc(C(C)(C)C)cc(c1OCC(=O)NCCC[N+](C)(C)C)Sc1cc(C(C)(C)C)cc(c1OCC(=O)NCCC[N+](C)(C)C)Sc1cc(C(C)(C)C)cc(c1OCC(=O)NCCC[N+](C)(C)C)S2.[Cl-].[Cl-].[Cl-].[Cl-]` the Ratio [1] was > 16 and 43, the Ratio [2] was 11 and the selectivity ratio [2] was over 16. It also gave an MBC [4] of 8 µg/mL, an MBC [5, 36] of 32 µg/mL and an MBC [6, 37] of over 64 µg/mL. It also gave an MIC [7, 38] of over 64 µg/mL and an MIC [8] of over 64 µg/mL.
`CCCCCCCCOc1c2cc(C[N+](C)(C)CCO)cc1Cc1cc(C[N+](C)(C)CCO)cc(c1OCCCCCCCC)Cc1cc(C[N+](C)(C)CCO)cc(c1OCCCCCCCC)Cc1cc(C[N+](C)(C)CCO)cc(c1OCCCCCCCC)C2.[Cl-].[Cl-].[Cl-].[Cl-]` showed an MIC [9] of 16 µg/mL, an MBC [10] of 16 µg/mL and an MBC [11] of 256 µg/mL. The MIC [12] was over 1000 µg/mL, the MIC [7, 38] was 32 µg/mL and the MIC [13] was over 1000 µg/mL. The MIC [14] was 500 µg/mL.
With `CCCCCCCCOc1c2cc(C[n+]3ccn(C)c3)cc1Cc1cc(C[n+]3ccn(C)c3)cc(c1OCCCCCCCC)Cc1cc(C[n+]3ccn(C)c3)cc(c1OCCCCCCCC)Cc1cc(C[n+]3ccn(C)c3)cc(c1OCCCCCCCC)C2.[Cl-].[Cl-].[Cl-].[Cl-]` the MIC [12] was over 1000 µg/mL, the MIC [7, 38] was 1000 µg/mL and the MIC [13] was over 1000 µg/mL. It also gave an MIC [14] of 500 µg/mL.
For `CC(C)(C)c1cc2c(OCC(=O)NCCC[N+](C)(C)Cc3ccccc3)c(c1)Sc1cc(C(C)(C)C)cc(c1OCC(=O)NCCC[N+](C)(C)Cc1ccccc1)Sc1cc(C(C)(C)C)cc(c1OCC(=O)NCCC[N+](C)(C)Cc1ccccc1)Sc1cc(C(C)(C)C)cc(c1OCC(=O)NCCC[N+](C)(C)Cc1ccccc1)S2.[Cl-].[Cl-].[Cl-].[Cl-]`, the MIC [15] was over 64 µg/mL, the MIC [16] was 64 µg/mL and the MIC [17] was over 64 µg/mL. The MIC [18] was 64 µg/mL, the MIC [19] was 64 µg/mL and the MIC [20] was 64 µg/mL. For the same molecule, the MIC [21] was 64 µg/mL, the MIC [22] was 64 µg/mL and the MIC [23] was 64 µg/mL. It also gave an MIC [24] of 64 µg/mL, an MIC [25] of 16 µg/mL and an MIC [26] of 64 µg/mL. It also gave an MIC [27] of 16 µg/mL, an MIC [28] of 64 µg/mL and an MIC [29] of 64 µg/mL. It also gave an MIC [30] of 64 µg/mL, an MBC [31] of 32 µg/mL and an MBC [32] of 64 µg/mL. The MBC [5] was 16 µg/mL, the MBC [5, 36] was 32 µg/mL and the MBC [6, 37] was 64 µg/mL. The MBC [6] was 64 µg/mL, the MIC ([7]; 24 h) was 32 µg/mL and the MIC [7, 38] was over 64 µg/mL. For the same molecule, the MIC [33] was 4 µg/mL, the MIC ([33]; Staphylococcus aureus, ATCC 29213, 24 h, read-out: MIC) was 4 µg/mL and the MIC [34] was 2 µg/mL. It also gave an MIC ([34]; Staphylococcus epidermidis, read-out: MIC) of 4 µg/mL, an MIC ([35]; 24 h) of over 64 µg/mL and an MIC ([35]; Klebsiella pneumoniae, ATCC 1813, 24 h, read-out: MIC) of 32 µg/mL. It also gave an MIC [8] of over 64 µg/mL.
